This is an account of results in US8263642B2, “Antimicrobial compounds and methods of use thereof” (Vanderbilt University, priority 2008, dated 2012).

The test system of test [1] is hrtAB-driven expression of the xylE reporter gene. The test can be described thus: XylE reporter assay (hrtAB promoter-xylE), Newman. It is filed as cell-based, Staphylococcus aureus. The conditions noted are these: for XylE (0.05): level of XylE induction at 0.05 uM of the compound; for XylE (0.5): level of XylE induction at 0.5 uM of the compound; for XylE (5.0): level of XylE induction at 5.0 uM of the compound; for XylE (50.0): level of XylE induction at 50.0 uM of the compound. As to the method:
(§1) With reference to Table 1, “Luminescence” refers to the raw luminescence value obtained in a luminomter. “Control (82.5 nm)” refers to the luminescence value obtained from heme at 82.5 nM as a positive control in the same plate as the experimental. “% lum” is the percentage of luminescence induced by the compound as compared to the heme control in the same plate. […] All of these assays are described in the application. […] “N/T” indicates the test was not performed.
Compounds that activate HssRS-driven hrtAB expression in the luciferase-based screen can be subjected to two separate counter screens to confirm these compounds as active hits. First, compounds of interest can be tested for their ability to activate expression of hrtAB in the XylE expression assay described hereinbelow. This is an in vitro assay that measures hrtAB-driven expression of the xylE reporter gene. The XylE-based reporter assay utilizes slightly more manipulations than the primary luciferase-based screen. […] It should be appreciated that a shortcoming of this counter screen is that it measures reporter gene expression, which is a similar activity as that measured in the primary assay. To address this shortcoming, compounds that are positive in both XylE- and luciferase-based assays can be subjected to a second counter screen as described hereinbelow.
S. aureus strains harboring the appropriate reporter construct were inoculated into 500 μl of TSB containing 10 μg/ml chloramphenicol in 1.5 ml tubes. Cultures were grown O/N at 37° C. with shaking. Bacteria were pelleted by centrifugation and spent medium was aspirated. The pellet was washed once with 500 μl of 20 mM potassium phosphate, pH 7.6, and resuspended in 150 μl of 100 mM potassium phosphate buffer, pH 8.0, 10% (v/v) acetone, 25 μg/ml lysostaphin. After 20 minute incubation at 37° C. and 5 minute incubation on ice, samples were centrifuged at 20,000 g for 30 minutes at 4° C. 1-10 μl of supernatant was added to a 96-well plate and 200 μl of 100 mM potassium phosphate, pH 8.0, 0.2 mM pyrocatechol was added to each well. Formation of 2-hydroxymuconic semialdehyde was tracked by measuring the absorbance at 375 nm every minute for 30 minutes on a Varian MP 50 microplate reader. Protein concentration in samples was determined by BCA (Pierce). One unit of specific activity of XylE in a sample is defined as the formation of 1 nmol of 2-hydroxymuconic semialdehyde per minute per milligram of cellular protein at 30° C. (Chien, Y., Manna, A. C., Projan, S. J., and Cheung, A. L. 1999, “SarA, a global regulator of virulence determinants in Staphylococcus aureus, binds to a conserved motif essential for sar-dependent gene regulation. J. Biol. Chem. 274, 37169-37176).
The hrtAB intergenic region was fused to the xylE structural gene by PCR-SOE. In the first reaction, primer P1B:[…] and P2B:[…] were used to amplify the hrtAB intergenic region from S. aureus strain Newman genomic DNA. In the second PCR reaction primers P3B:[…] and P4B:[…] were used to amplify the xylE structural gene using pALC1639 template DNA (provided by Dr. Ambrose Cheung) and PCR product purified using a Qiagen gel extraction kit. For the PCRSOE reaction, a 1:300 dilution of purified reaction 1 and reaction 2 PCR products was mixed and amplified by PCR using […]. This yielded a construct in which the hrtAB intergenic region is fused to the xylE gene in such a manner that the position of the start codon for xylE corresponds to the position of the start codon for […] in the hrtAB locus. The hrtAB promoter-xylE fusion DNA was then subcloned into pOS1. As a control we also constructed a promoterless xylE vector. The xylE gene was amplified from pACL1639 template DNA using the primers P1C:[…] and P2C:[…] and then cloned into the pOS1 vector.

For test [2], the system named is HssRS-dependent hrtAB expression. The test can be described thus: Luminescence-based assay to monitor HssRS-dependent hrtAB expression (phrtABlux reporter), Newman. The conditions noted are these: Newman; for Luminescence: raw luminescence value obtained in a luminometer; for activation at 0.0825 µM: Staphylococcus aureus, NEWMAN, read-out: % Lumi, luminescence induced by the compound compared to the heme control (82.5 nM) in the same plate. The format is cell-based, Staphylococcus aureus. As to the method: as §1
A hrtAB-driven expression system was created in the pXen vector system (Xenogen) (Francis, K. P., D. Joh, C. Bellinger-Kawahara, M. J. Hawkinson, T. F. Purchio, and P. R. Contag. 2000. Monitoring bioluminescent Staphylococcus aureus infections in living mice using a novel luxABCDE construct. Infect Immun 68:3594-3600). This vector contains a promoterless luxCDABE operon from Photorabdus luminescens which produces blue green light when expressed. The luxCDABE encodes for a fatty acid reductase (LuxCDE) that produces a long chain fatty aldehyde which, when combined with cellular flavin mononucleotide, is oxidized by a luciferase (LuxAB) to produce light. Therefore, this system is useful in that it bypasses the need for substrate addition and is capable of generating light in the absence of any added reagents. Furthermore, the luminescent signal produced by the combined activities of LuxAB and LuxCDE is of sufficient intensity to be visualized in unmanipulated intact bacteria.
To establish an assay that measures HssRS-dependent expression of luxCDABE, the promoter for hrtAB upstream of luxCDABE was cloned and transformed this vector (phrtABlux) into wildtype and ΔhssR S. aureus. A promoterless vector (plux) and a plasmid containing luxCDABE under the control of a constitutive promoter (psrtAlux) (Mazmanian, S. K., G. Liu, H. Ton-That, and O. Schneewind. 1999. “Staphylococcus aureus sortase, an enzyme that anchors surface proteins to the cell wall.” Science 285:760-763) were included as negative and positive controls, respectively. Initially, wildtype S. aureus harboring either plux, phrtABlux, or psrtAlux were plated on solid medium that either lacked heme or contained 4 μM heme. Only wildtype S. aureus containing psrtAlux produced light on solid media regardless of the presence or absence of heme. […] Light was not produced by bacteria containing plux in either condition.
To adapt this system for a HTS to measure ligand recognition by HssRS, luminescence of wildtype and ΔhssR harboring the above listed plasmids in liquid media with or without heme was measured. […] Taken together, these experiments establish a whole cell […] assay that can identify small molecule modifiers of HssRS. This screen, in some aspects, can identify molecules that can be used as molecular probes in structure-function analyses to determine the mechanism by which S. aureus sense host heme.
Upon staphylococcal exposure to heme, HssRS senses heme and activates expression of hrtAB. This process can be measured using a reporter assay that employs a vector encoding the light-producing luxCDABE operon under the control of the hrtAB promoter. This assay results in whole cell luminescence upon HssRS-dependent activation of hrtAB, forming the foundation for the development of an assay suitable for high-throughput screens for small molecule activators of HssRS.
To develop an automated HTS format, S. aureus wildtype and ΔhssR harboring reporter constructs (psrtAlux, phrtAlux, plux) can be grown for 15 hours at 37° C. in tryptic soy broth (TSB) containing 10 μg/ml chloramphenicol. The addition of chloramphenicol is useful to ensure that the staphylococci propagate the reporter plasmid upon cell division. Following growth, bacterial cultures can be normalized and 2×10^7 cells (approximately 2 μl) can be added to individual wells of black walled, clear bottomed, 96-well plates. […]

Turning to `NS(=O)(=O)c1ccc(Nc2nc(-c3ccc(Cl)cc3)cs2)cc1`, in test [1], the “XylE (0.05)” value was 0.04, the “XylE (0.5)” value was found to be 1, the “XylE (5.0)” value stood at 1 and the “XylE (50.0)” value amounted to 0.02. The same molecule gave a Luminescence in test [2] of 4946.
Consider `O=C(Nc1ccc(NC(=O)c2ccccc2)c(Cl)c1)c1ccccc1`, for which, in test [1], the “XylE (0.05)” value amounted to 0.06, the “XylE (0.5)” value came to 0.05, the “XylE (5.0)” value stood at 0.07 and the “XylE (50.0)” value worked out at 0.02. In test [2], the activation at 0.0825 µM was 102% and the Luminescence came to 291.
On to `COC(=O)C1=C(C)NC(=O)NC1c1cn(-c2ccccc2)nc1-c1ccc(OC)c(OC)c1` (stereo not drawn), for which, in test [1], the “XylE (0.5)” value is given as 0.04, the “XylE (5.0)” value was determined as 0.03 and the “XylE (50.0)” value is recorded as 0.05. In test [2], the activation at 0.0825 µM came out at 866% and the Luminescence came to 1854.
For `Brc1ccc2[nH]cc(-c3nc(-c4ccccc4)c(-c4ccccc4)[nH]3)c2c1`, in test [1], the “XylE (0.05)” value is 0.4, the “XylE (0.5)” value is 2, the “XylE (5.0)” value is recorded as 1 and the “XylE (50.0)” value worked out at 1. The molecule also had a Luminescence in test [2] of 2549.
As for `Cc1ccc(Nc2nc(-c3ccccc3O)nc3ccccc23)cc1`, in test [1], the “XylE (0.5)” value was 0.04, the “XylE (5.0)” value came to 0.1 and the “XylE (50.0)” value was determined as 0.08. In test [2], the activation at 0.0825 µM came to 360% and the Luminescence was determined as 1922.
Take `Cc1cccc(NC(=O)c2cc3ccccc3cc2O)c1`: in test [1], the “XylE (0.05)” value was 0.02, the “XylE (0.5)” value was found to be 0.09, the “XylE (5.0)” value is given as 0.1 and the “XylE (50.0)” value was found to be 0.02. In test [2], the activation at 0.0825 µM stood at 217% and the Luminescence was found to be 794.
With `O=C(Nc1ccncc1)c1ccc(COc2cc(Cl)ccc2Cl)cc1`, in test [1], the “XylE (0.5)” value stood at 1, the “XylE (5.0)” value worked out at 0.4 and the “XylE (50.0)” value stood at 1. Besides, in test [2], the activation at 0.0825 µM amounted to 597% and the Luminescence was 1845.
`COc1ccc(CN2CCCN(C)CC2)c(C)c1C`: in test [1], the “XylE (0.05)” value amounted to 0, the “XylE (0.5)” value was found to be 0, the “XylE (5.0)” value is 1 and the “XylE (50.0)” value came to 1. In test [2], the activation at 0.0825 µM is 127% and the Luminescence came to 534.
Regarding `CCOC(=O)c1c(C)[nH]c2c1-c1cc(Br)ccc1C(=O)C2=O`, in test [1], the “XylE (0.05)” value turned out to be 1, the “XylE (0.5)” value stood at 1, the “XylE (5.0)” value came to 0.09 and the “XylE (50.0)” value was 0.3. Besides, in test [2], the activation at 0.0825 µM amounted to 240% and the Luminescence is on record as 2896.
As to `CCN(CC)S(=O)(=O)c1cc(C(=O)NC2CCCCCC2)ccc1Cl`, in test [1], the “XylE (0.05)” value stood at 1, the “XylE (0.5)” value is listed as 1, the “XylE (5.0)” value was 1 and the “XylE (50.0)” value came out at 0.05. In test [2], the activation at 0.0825 µM was 759% and the Luminescence came to 2080.
On to `CC(/C=N/NC(=O)C1COc2ccccc2O1)=C\c1ccccc1` (stereo not drawn), for which, in test [1], the “XylE (0.05)” value is recorded as 0.07, the “XylE (0.5)” value came to 0.04, the “XylE (5.0)” value came out at 0.2 and the “XylE (50.0)” value is recorded as 0.05. For the same molecule, in test [2], the activation at 0.0825 µM was determined as 139% and the Luminescence is reported as 507.
Turning to `O=C1C2=C(Nc3nn(-c4ccccc4)c(O)c3C2c2ccc([N+](=O)[O-])cc2)c2ccccc21` (stereo not drawn), in test [1], the “XylE (0.05)” value amounted to 0.4, the “XylE (0.5)” value was 1, the “XylE (5.0)” value was determined as 0.3 and the “XylE (50.0)” value is recorded as 1. The Luminescence in test [2] was determined as 2608.
As for `Cc1c(-c2ccccc2)nc2ccccc2c1C(=O)Nc1ccccc1C(F)(F)F`, in test [1], the “XylE (0.05)” value came to 0.5, the “XylE (0.5)” value is 0.7, the “XylE (5.0)” value is 0.03 and the “XylE (50.0)” value was 0.02. Besides, the Luminescence in test [2] is recorded as 2424.
Consider `CSc1ccc(NC=C2C(=O)CC(C)(C)CC2=O)cc1`, for which, in test [1], the “XylE (0.05)” value is 0.04, the “XylE (0.5)” value worked out at 0.05, the “XylE (5.0)” value is listed as 0.01 and the “XylE (50.0)” value is on record as 1. Moreover, in test [2], the activation at 0.0825 µM is 161% and the Luminescence was 1347.
As to `O=C(NC(=S)Nc1ccc(-c2nc3ccccc3s2)cc1)c1ccccc1[N+](=O)[O-]` [drawing 23], in test [1], the “XylE (0.05)” value is on record as 0.09, the “XylE (0.5)” value stood at 0.07, the “XylE (5.0)” value was 0.08 and the “XylE (50.0)” value was 0.2. For the same molecule, in test [2], the activation at 0.0825 µM came to 374% and the Luminescence is on record as 1794.
Regarding `COc1cccc(-c2cc(C(=O)Nc3ccccc3C(F)(F)F)c3ccccc3n2)c1`, in test [1], the “XylE (0.5)” value came to 0, the “XylE (5.0)” value is reported as 0.05 and the “XylE (50.0)” value worked out at 0.09. In addition, in test [2], the activation at 0.0825 µM came to 450% and the Luminescence is on record as 1642.
`Oc1ccc(Nc2n[n+](-c3ccc(Cl)cc3)cc3ccccc23)cc1`: in test [1], the “XylE (0.05)” value is reported as 0.5, the “XylE (0.5)” value is given as 6, the “XylE (5.0)” value amounted to 1 and the “XylE (50.0)” value is listed as 0.6. The same molecule had a Luminescence in test [2] of 2098.
